Drawing on patent publication US11795177B2, “Substituted quinoline analogs as aldehyde dehydrogenase 1A1 (ALDH1A1) inhibitors” (THE UNITED STATES OF AMERICA, AS REPRESENTED BY THE …, priority 2017, dated 2023), this text covers IC50 for 24 compounds.

The IC50 is the concentration that inhibits the measured activity by half.

In one assay the target is T1, ALDH1A1 enzyme (Homo sapiens, UniProt P00352).
T1 sequence (P00352 1-501): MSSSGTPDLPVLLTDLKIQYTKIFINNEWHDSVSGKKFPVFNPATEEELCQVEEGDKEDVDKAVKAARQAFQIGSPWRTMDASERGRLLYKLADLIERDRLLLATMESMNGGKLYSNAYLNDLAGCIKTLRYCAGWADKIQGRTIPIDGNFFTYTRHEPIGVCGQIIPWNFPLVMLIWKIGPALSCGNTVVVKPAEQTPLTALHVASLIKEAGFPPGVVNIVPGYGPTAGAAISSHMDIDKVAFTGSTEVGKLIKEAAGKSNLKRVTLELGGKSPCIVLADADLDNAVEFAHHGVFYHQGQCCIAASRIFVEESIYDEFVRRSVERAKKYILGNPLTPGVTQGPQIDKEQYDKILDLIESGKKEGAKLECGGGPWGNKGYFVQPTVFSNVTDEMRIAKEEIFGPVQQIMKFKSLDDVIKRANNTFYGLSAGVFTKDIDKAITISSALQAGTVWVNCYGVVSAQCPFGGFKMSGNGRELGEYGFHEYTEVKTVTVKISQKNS
Nature of the assay: ALDH1A1 enzymatic assay (in vitro). Format: biochemical. The settings on record: ALDH1A1 enzyme 20 nM, NAD+ 1 mM, propionaldehyde 80 μM; read-out: ALDH1A1 IC50. Summed up:
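ALDH1A1 (20 nM final) in 100 mM HEPES pH 7.5, 0.01% Tween 20 was preincubated 15 min at RT with compound (968 pM–57.2 μM final), then started with 1 mM NAD+ and 80 μM propionaldehyde. NADH fluorescence (ex 340/em 450 nm) followed kinetically for 10 min; change normalized to no-inhibitor and no-enzyme controls for percent inhibition and curve fitting.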

The next assay deals with MIA PaCa-2 cells. Nature of the assay: MIA PaCa2 cell-based assay (1,536-well high-content imaging ALDEFLUOR assay). On the set-up: species or system human. To be noted: Homo sapiens, 0.5 h, ALDEFLUOR BAAA substrate 500 nM, 30 minutes. Summed up: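 MIA PaCa-2 cells (1,000/well), plated overnight, given BAAA substrate (500 nM) plus Hoechst 33342 (0.5 nM), then compound (16-point, 1.4 nM–47.8 μM final; 0.5% DMSO). After 30 min at 37° C, ALDH activity imaged by high-content microscopy as BAA-retaining (FITC) cells versus Hoechst-stained nuclei.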

Structures are written as SMILES.

Regarding `CC1(C#N)CCN(c2c(C(=O)N3CCN(S(=O)(=O)N4CCCC4)CC3)cnc3cc(F)c(F)cc23)CC1` [Example 178, 1-(6,7-difluoro-3-(4-(pyrrolidin-1-ylsulfonyl)piperazine-1-carbonyl)quinolin-4-yl)-4-methylpiperidine-4-carbonitrile], the figures for the IC50 at ALDH1A1 enzyme and in the assay with MIA PaCa-2 cells were 1000 to 10000 nM and greater than 10000 nM, respectively.
With `CN(C)C(=O)N1CCN(C(=O)c2cnc3ccc(F)cc3c2N2CCC3(CC2)OCCO3)CC1` [Example 179, 4-(6-fluoro-4-(1,4-dioxa-8-azaspiro[4.5]decan-8-yl)quinoline-3-carbonyl)-N,N-dimethylpiperazine-1-carboxamide], the IC50 is less than 500 nM at ALDH1A1 enzyme and 500 to 1000 nM in the assay with MIA PaCa-2 cells.
The like results for `CN(C)C(=O)N1CCN(C(=O)c2cnc3c(F)cc(F)cc3c2N2CCC3(CC2)OCCO3)CC1` [Example 180, 4-(6,8-difluoro-4-(1,4-dioxa-8-azaspiro[4.5]decan-8-yl)quinoline-3-carbonyl)-N,N-dimethylpiperazine-1-carboxamide] were, in that order, less than 500 nM and 1000 to 10000 nM.
In the case of `CN(C)C(=O)N1CCN(C(=O)c2cnc3cc(F)c(F)cc3c2N2CCC3(CC2)OCCO3)CC1` [Example 181, 4-(6,7-difluoro-4-(1,4-dioxa-8-azaspiro[4.5]decan-8-yl)quinoline-3-carbonyl)-N,N-dimethylpiperazine-1-carboxamide], the results for the concentration for half-maximal inhibition (IC50) at ALDH1A1 enzyme and with MIA PaCa-2 cells were less than 500 nM and 1000 to 10000 nM, respectively.
The like results for `CN(C)C(=O)N1CCN(C(=O)c2cnc3c(F)cc(F)cc3c2N2CCC(C)(C#N)CC2)CC1` [Example 183, 4-(4-(4-cyano-4-methylpiperidin-1-yl)-6,8-difluoroquinoline-3-carbonyl)-N,N-dimethylpiperazine-1-carboxamide] were, in that order, less than 500 nM and 1000 to 10000 nM.
As to `CN(C)C(=O)N1CCN(C(=O)c2cnc3cc(F)c(F)cc3c2N2CCC(C)(C#N)CC2)CC1` [Example 184, 4-(4-(4-cyano-4-methylpiperidin-1-yl)-6,7-difluoroquinoline-3-carbonyl)-N,N-dimethylpiperazine-1-carboxamide], the half-inhibitory concentration (IC50) at ALDH1A1 enzyme was less than 500 nM; with MIA PaCa-2 cells, 1000 to 10000 nM.
The like results for `CS(=O)(=O)C1CCN(C(=O)c2cnc3ccc(F)cc3c2N2CCC3(CC2)OCCO3)CC1` [Example 185, (6-fluoro-4-(1,4-dioxa-8-azaspiro[4.5]decan-8-yl)quinolin-3-yl)(4-(methylsulfonyl)piperidin-1-yl)methanone] were, in that order, less than 500 nM and 1000 to 10000 nM.
The like results for `CS(=O)(=O)C1CCN(C(=O)c2cnc3c(F)cc(F)cc3c2N2CCC3(CC2)OCCO3)CC1` [Example 186, (6,8-difluoro-4-(1,4-dioxa-8-azaspiro[4.5]decan-8-yl)quinolin-3-yl)(4-(methylsulfonyl)piperidin-1-yl)methanone] were, in that order, less than 500 nM and 1000 to 10000 nM.
The like results for `CS(=O)(=O)C1CCN(C(=O)c2cnc3cc(F)c(F)cc3c2N2CCC3(CC2)OCCO3)CC1` [Example 187, (6,7-difluoro-4-(1,4-dioxa-8-azaspiro[4.5]decan-8-yl)quinolin-3-yl)(4-(methylsulfonyl)piperidin-1-yl)methanone] were, in that order, less than 500 nM and 1000 to 10000 nM.
As for `CC1(C#N)CCN(c2c(C(=O)N3CCC(S(C)(=O)=O)CC3)cnc3c(F)cc(F)cc23)CC1` [Example 189, 1-(6,8-difluoro-3-(4-(methylsulfonyl)piperidine-1-carbonyl)quinolin-4-yl)-4-methylpiperidine-4-carbonitrile], the IC50 on ALDH1A1 enzyme was less than 500 nM; in the assay with MIA PaCa-2 cells it was 1000 to 10000 nM.
On the same counts, the results for `CC1(C#N)CCN(c2c(C(=O)N3CCC(S(C)(=O)=O)CC3)cnc3cc(F)c(F)cc23)CC1` [Example 190, 1-(6,7-difluoro-3-(4-(methylsulfonyl)piperidine-1-carbonyl)quinolin-4-yl)-4-methylpiperidine-4-carbonitrile] are less than 500 nM and 1000 to 10000 nM.
Take `O=C(C1CC1)C1CCN(C(=O)c2cnc3ccc(F)cc3c2N2CCC3(CC2)OCCO3)CC1` [Example 191, (4-(cyclopropanecarbonyl)piperidin-1-yl)(6-fluoro-4-(1,4-dioxa-8-azaspiro[4.5]decan-8-yl)quinolin-3-yl)methanone]: the IC50 on ALDH1A1 enzyme is less than 500 nM; in the assay with MIA PaCa-2 cells, 500 to 1000 nM.
The like results for `O=C(C1CC1)C1CCN(C(=O)c2cnc3c(F)cc(F)cc3c2N2CCC3(CC2)OCCO3)CC1` [Example 192, (4-(cyclopropanecarbonyl)piperidin-1-yl)(6,8-difluoro-4-(1,4-dioxa-8-azaspiro[4.5]decan-8-yl)quinolin-3-yl)methanone] were, in that order, less than 500 nM and 500 to 1000 nM.
`O=C(C1CC1)C1CCN(C(=O)c2cnc3cc(F)c(F)cc3c2N2CCC3(CC2)OCCO3)CC1` [Example 193, (4-(cyclopropanecarbonyl)piperidin-1-yl)(6,7-difluoro-4-(1,4-dioxa-8-azaspiro[4.5]decan-8-yl)quinolin-3-yl)methanone]: the values for the IC50 at ALDH1A1 enzyme and in the assay on MIA PaCa-2 cells were less than 500 nM and 1000 to 10000 nM, respectively.
The like results for `CC1(C#N)CCN(c2c(C(=O)N3CCC(C(=O)C4CC4)CC3)cnc3c(F)cc(F)cc23)CC1` [Example 195, 1-(3-(4-(cyclopropanecarbonyl)piperidine-1-carbonyl)-6,8-difluoroquinolin-4-yl)-4-methylpiperidine-4-carbonitrile] were, in that order, less than 500 nM and 1000 to 10000 nM.
On the same counts, the results for `CC1(C#N)CCN(c2c(C(=O)N3CCC(C(=O)C4CC4)CC3)cnc3cc(F)c(F)cc23)CC1` [Example 196, 1-(3-(4-(cyclopropanecareonyl)piperidine-1-carbonyl)-6,7-difluoroquinolin-4-yl)-4-methylpiperidine-4-carbonitrile] are less than 500 nM and 1000 to 10000 nM.
The like results for `CS(=O)(=O)N1CCN(C(=O)c2cnc3ccc(F)cc3c2N2CCC(Cc3ccccc3)CC2)CC1` [Example 198, (4-(4-benzylpiperidin-1-yl)-6-fluoroquinolin-3-yl)(4-(methylsulfonyl)piperazin-1-yl)methanone] were, in that order, less than 500 nM and greater than 10000 nM.
`O=C1CC2(CCN(c3c(C(=O)N4CCN(C(=O)C5CC5)CC4)cnc4ccc(F)cc34)CC2)c2ccccc21` [Example 203, 1′-(3-(4-(cyclopropanecarbonyl)piperazine-1-carbonyl)-6-fluoroquinolin-4-yl)spiro[indene-1,4′-piperidin]-3(2H)-one]: the IC50 on ALDH1A1 enzyme and in the assay with MIA PaCa-2 cells was 1000 to 10000 nM throughout.
`O=C(c1cnc2ccc(F)cc2c1N1CCC2(CC1)Cc1ccccc1C2=O)N1CCN(C(=O)C2CC2)CC1` [Example 204, 1′-(3-(4-(cyclopropanecarbonyl)piperazine-1-carbonyl)-6-fluoroquinolin-4-yl)spiro[indene-2,4′-piperidin]-1(3H)-one]: the results for the concentration for half-maximal inhibition (IC50) on ALDH1A1 enzyme and in the assay with MIA PaCa-2 cells were 1000 to 10000 nM and greater than 10000 nM, respectively.
On the same counts, the results for `Cn1ncc2c(N3CCC(C)(C#N)CC3)c(C(=O)N3CCN(C(=O)C4CC4)CC3)cnc21` [Example 205, 1-(5-(4-(cyclopropanecarbonyl)piperazine-1-carbonyl)-1-methyl-1H-pyrazolo[3,4-b]pyridin-4-yl)-4-methylpiperidine-4-carbonitrile] are less than 500 nM and 1000 to 10000 nM.
The like results for `CCS(=O)(=O)N1CCN(C(=O)c2cnc3c(cnn3C)c2N2CCC(C)(C#N)CC2)CC1` [Example 207, 1-(5-(4-(ethylsulfonyl)piperazine-1-carbonyl)-1-methyl-1H-pyrazolo[3,4-b]pyridin-4-yl)-4-methylpiperidine-4-carbonitrile] were, in that order, less than 500 nM and 1000 to 10000 nM.
On the same counts, the results for `CS(=O)(=O)N1CCN(C(=O)c2cnc3ccc(F)cc3c2-c2ccc(CC#N)cc2)CC1` [Example 212, 2-(4-(6-fluoro-3-(4-(methylsulfonyl)piperazine-1-carbonyl)quinolin-4-yl)phenyl)acetonitrile] are less than 500 nM and 1000 to 10000 nM.
Consider `N#CCC1CCN(c2c(C(=O)N3CCN(C(=O)C4CC4)CC3)cnc3ccc(F)cc23)CC1` [Example 213, 2-(1-(3-(4-(cyclopropanecarbonyl)piperazine-1-carbonyl)-6-fluoroquinolin-4-yl)piperidin-4-yl)acetonitrile], for which the 50% inhibitory concentration (IC50) at ALDH1A1 enzyme and in the assay on MIA PaCa-2 cells was 1000 to 10000 nM in each case.
As for `CS(=O)(=O)N1CCN(C(=O)c2cnc3ccc(F)cc3c2N2CCC(CC#N)CC2)CC1` [Example 214, 2-(1-(6-fluoro-3-(4-(methylsulfonyl)piperazine-1-carbonyl)quinolin-4-yl)piperidin-4-yl)acetonitrile], the IC50 at ALDH1A1 enzyme was 1000 to 10000 nM; with MIA PaCa-2 cells, greater than 10000 nM.
